Assay results reported in ChEMBL document CHEMBL1201862, “PubChem BioAssay data set” (2004).
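Each compound was tested at five concentrations against cells in 96-well plates for 48 hours. GI50: concentration for 50% inhibition of growth.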 The source made the active and inactive calls. No stated cut-off is given here; in the data, active = GI50 up to about 1.1 µM and inactive = higher.

Tests used:
Experiment in all cases: NCI-60 cell line screen, 48 h
[1] = tested on: A549
[2] = tested on: ACHN
[3] = tested on: LXFL 529
[4] = tested on: SK-MEL-28
[5] = tested on: SNB-19
[6] = tested on: LOX IMVI
[7] = tested on: COLO 205
[8] = tested on: SF-539
[9] = tested on: HL-60
[10] = tested on: 786-0
[11] = tested on: MOLT-4
[12] = tested on: NCI-H226
[13] = tested on: OVCAR-8
[14] = tested on: KM-20L2
[15] = tested on: K562
[16] = tested on: UACC-62
[17] = tested on: NCI-H522
[18] = tested on: SR
[19] = tested on: HCT-116
[20] = tested on: SNB-78
[21] = tested on: OVCAR-4
[22] = tested on: NCI-H23
[23] = tested on: SF-295
[24] = tested on: SN12C
[25] = tested on: SF-268
[26] = tested on: TK-10
[27] = tested on: A498
[28] = tested on: HOP-62
[29] = tested on: EKVX
[30] = tested on: M14
[31] = tested on: KM12
[32] = tested on: IGROV-1
[33] = tested on: U-251
[34] = tested on: DMS-273
[35] = tested on: HCT-15
[36] = tested on: HCC 2998
[37] = tested on: DMS-114
[38] = tested on: NCI-H460
[39] = tested on: SW-620
[40] = tested on: SK-MEL-2
[41] = tested on: UACC-257
[42] = tested on: RXF 393
[43] = tested on: HT-29
[44] = tested on: CCRF-CEM
[45] = tested on: CAKI-1
[46] = tested on: OVCAR-3
[47] = tested on: OVCAR-5
[48] = tested on: RPMI-8226
[49] = tested on: UO-31
[50] = tested on: M19-MEL
[51] = tested on: HOP-92
[52] = tested on: SK-OV-3
[53] = tested on: Malme-3M
[54] = tested on: HOP-18

Compound: CC(SC(=S)Nc1cccc(F)c1)C(=O)O (configuration not stated)
- GI50 [1]: 31.7 µM (inactive)
- GI50 [2]: 26.5 µM (inactive)
- GI50 [3]: 17.9 µM (inactive)
- GI50 [4]: 16.1 µM (inactive)
- GI50 [5]: 29.4 µM (inactive)
- GI50 [6]: 16.1 µM (inactive)
- GI50 [7]: > 10 µM (inactive)
- GI50 [8]: 18.3 µM (inactive)
- GI50 [9]: 13.3 µM (inactive)
- GI50 [10]: 34.4 µM (inactive)
- GI50 [11]: 17.5 µM (inactive)
- GI50 [12]: 20.1 µM (inactive)
- GI50 [13]: 25.5 µM (inactive)
- GI50 [14]: 26.4 µM (inactive)
- GI50 [15]: 15.6 µM (inactive)
- GI50 [16]: 19 µM (inactive)
- GI50 [17]: 13.4 µM (inactive)
- GI50 [18]: 13.8 µM (inactive)
- GI50 [19]: 19.2 µM (inactive)
- GI50 [20]: 38.9 µM (inactive)
- GI50 [21]: > 100 µM (inactive)
- GI50 [22]: 21 µM (inactive)
- GI50 [23]: 23.9 µM (inactive)
- GI50 [24]: 50.7 µM (inactive)
- GI50 [25]: 13.6 µM (inactive)
- GI50 [26]: 29.2 µM (inactive)
- GI50 [27]: 26.7 µM (inactive)
- GI50 [28]: 18.3 µM (inactive)
- GI50 [29]: 51.2 µM (inactive)
- GI50 [30]: 16.8 µM (inactive)
- GI50 [31]: > 10 µM (inactive)
- GI50 [32]: 3.85 µM (inactive)
- GI50 [33]: 28.9 µM (inactive)
- GI50 [34]: 11.8 µM (inactive)
- GI50 [35]: 26.1 µM
- GI50 [36]: 30.9 µM (inactive)
- GI50 [37]: 15.1 µM (inactive)
- GI50 [38]: 26.2 µM (inactive)
- GI50 [39]: 33.3 µM (inactive)
- GI50 [40]: 24.1 µM (inactive)
- GI50 [41]: 16.6 µM (inactive)
- GI50 [42]: 14.2 µM (inactive)
- GI50 [43]: 30.5 µM (inactive)
- GI50 [44]: 21.2 µM (inactive)
- GI50 [45]: 45.8 µM (inactive)
- GI50 [46]: 27.4 µM (inactive)
- GI50 [47]: 46.5 µM (inactive)
- GI50 [48]: 15.6 µM (inactive)
- GI50 [49]: 24.9 µM (inactive)

Compound: COc1cc(O)c2c(c1C)C(C)(O)c1c(C)coc1C2=O (configuration not stated)
- GI50 [1]: > 100 µM (inactive)
- GI50 [2]: > 100 µM (inactive)
- GI50 [4]: > 100 µM (inactive)
- GI50 [5]: > 100 µM (inactive)
- GI50 [9]: 57.7 µM (inactive)
- GI50 [12]: 99.8 µM (inactive)
- GI50 [13]: > 100 µM (inactive)
- GI50 [50]: > 100 µM (inactive)
- GI50 [16]: 74.1 µM (inactive)
- GI50 [18]: > 100 µM (inactive)
- GI50 [19]: > 100 µM (inactive)
- GI50 [20]: > 100 µM (inactive)
- GI50 [22]: > 100 µM (inactive)
- GI50 [23]: > 100 µM (inactive)
- GI50 [26]: > 100 µM (inactive)
- GI50 [27]: 89.7 µM (inactive)
- GI50 [28]: > 100 µM (inactive)
- GI50 [29]: > 100 µM (inactive)
- GI50 [30]: > 100 µM (inactive)
- GI50 [31]: > 100 µM (inactive)
- GI50 [32]: > 100 µM (inactive)
- GI50 [33]: > 100 µM (inactive)
- GI50 [51]: > 100 µM (inactive)
- GI50 [37]: > 100 µM (inactive)
- GI50 [52]: > 100 µM (inactive)
- GI50 [38]: > 100 µM (inactive)
- GI50 [41]: > 100 µM (inactive)
- GI50 [42]: > 100 µM (inactive)
- GI50 [43]: > 100 µM (inactive)
- GI50 [47]: > 100 µM (inactive)
- GI50 [49]: > 100 µM (inactive)

Compound: COC(=O)CN1CCS/C1=N/C#N
- GI50 [1]: > 100 µM (inactive)
- GI50 [4]: > 100 µM (inactive)
- GI50 [5]: > 100 µM (inactive)
- GI50 [9]: > 100 µM (inactive)
- GI50 [11]: > 100 µM (inactive)
- GI50 [12]: > 100 µM (inactive)
- GI50 [15]: > 100 µM (inactive)
- GI50 [16]: > 100 µM (inactive)
- GI50 [17]: > 100 µM (inactive)
- GI50 [18]: > 100 µM (inactive)
- GI50 [20]: > 100 µM (inactive)
- GI50 [22]: > 100 µM (inactive)
- GI50 [25]: > 100 µM (inactive)
- GI50 [26]: > 100 µM (inactive)
- GI50 [27]: > 100 µM (inactive)
- GI50 [28]: > 100 µM (inactive)
- GI50 [29]: > 100 µM (inactive)
- GI50 [30]: > 100 µM (inactive)
- GI50 [31]: > 100 µM (inactive)
- GI50 [32]: > 100 µM (inactive)
- GI50 [33]: > 100 µM (inactive)
- GI50 [34]: > 100 µM (inactive)
- GI50 [51]: > 100 µM (inactive)
- GI50 [52]: > 100 µM (inactive)
- GI50 [38]: > 100 µM (inactive)
- GI50 [42]: > 100 µM (inactive)
- GI50 [43]: > 100 µM (inactive)
- GI50 [44]: > 100 µM (inactive)
- GI50 [47]: > 100 µM (inactive)
- GI50 [49]: > 100 µM (inactive)

Compound: COc1cc(C2c3cc4c(cc3[C@@H](NCCCN3CCCC3=O)C3COC(=O)[C@H]23)OCO4)cc(OC)c1O (some centres not stated)
- GI50 [2]: 2.92 µM (inactive)
- GI50 [7]: 4.17 µM (inactive)
- GI50 [8]: 0.393 µM (active)
- GI50 [17]: 0.319 µM (active)
- GI50 [22]: 0.515 µM (active)
- GI50 [53]: 0.405 µM (active)
- GI50 [54]: > 17.5 µM (inactive)
